Results from article PMC7933325, “Neolignans and Norlignans from Insect Medicine Polyphaga plancyi and Their Biological Activities” (Natural Products and Bioprospecting, 2020).

How the values were obtained:
Assay in all cases: kinase inhibition assay (method cited to earlier paper)
Format in all cases: biochemical
JAK3 = target: T1, JAK3 (Homo sapiens, UniProt P52333)
T1 sequence (P52333 1-1124): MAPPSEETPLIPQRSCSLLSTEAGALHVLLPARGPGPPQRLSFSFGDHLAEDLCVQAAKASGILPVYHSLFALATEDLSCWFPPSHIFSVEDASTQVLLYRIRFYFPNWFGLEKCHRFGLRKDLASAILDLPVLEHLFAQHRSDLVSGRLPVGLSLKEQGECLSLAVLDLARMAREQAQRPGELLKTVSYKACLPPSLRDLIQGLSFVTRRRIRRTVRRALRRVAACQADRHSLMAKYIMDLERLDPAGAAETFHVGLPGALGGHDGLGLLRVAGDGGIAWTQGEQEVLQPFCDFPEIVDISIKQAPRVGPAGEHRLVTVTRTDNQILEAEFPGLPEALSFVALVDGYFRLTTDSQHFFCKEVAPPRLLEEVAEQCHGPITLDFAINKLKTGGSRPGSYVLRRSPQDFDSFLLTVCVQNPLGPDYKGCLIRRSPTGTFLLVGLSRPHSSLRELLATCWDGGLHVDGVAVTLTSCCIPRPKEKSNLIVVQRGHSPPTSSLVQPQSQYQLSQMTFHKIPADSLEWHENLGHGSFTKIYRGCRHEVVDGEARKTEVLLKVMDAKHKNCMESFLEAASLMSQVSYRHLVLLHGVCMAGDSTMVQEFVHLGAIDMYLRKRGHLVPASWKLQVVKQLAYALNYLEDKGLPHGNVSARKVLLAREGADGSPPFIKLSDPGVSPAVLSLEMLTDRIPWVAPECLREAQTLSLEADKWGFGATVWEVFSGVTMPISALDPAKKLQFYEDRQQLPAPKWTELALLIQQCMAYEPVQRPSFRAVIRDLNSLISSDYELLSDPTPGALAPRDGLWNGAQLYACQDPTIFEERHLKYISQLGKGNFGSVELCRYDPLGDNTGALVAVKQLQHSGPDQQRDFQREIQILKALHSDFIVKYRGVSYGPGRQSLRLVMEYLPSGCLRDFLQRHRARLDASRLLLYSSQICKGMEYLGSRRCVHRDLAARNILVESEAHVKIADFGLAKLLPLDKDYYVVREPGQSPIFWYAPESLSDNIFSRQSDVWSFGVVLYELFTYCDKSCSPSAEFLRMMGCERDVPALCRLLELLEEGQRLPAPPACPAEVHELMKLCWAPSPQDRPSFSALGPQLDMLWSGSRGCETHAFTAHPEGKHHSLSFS

DDR1 = DDR1 (Homo sapiens, UniProt Q08345)
Sequence of DDR1 (Q08345 19-913): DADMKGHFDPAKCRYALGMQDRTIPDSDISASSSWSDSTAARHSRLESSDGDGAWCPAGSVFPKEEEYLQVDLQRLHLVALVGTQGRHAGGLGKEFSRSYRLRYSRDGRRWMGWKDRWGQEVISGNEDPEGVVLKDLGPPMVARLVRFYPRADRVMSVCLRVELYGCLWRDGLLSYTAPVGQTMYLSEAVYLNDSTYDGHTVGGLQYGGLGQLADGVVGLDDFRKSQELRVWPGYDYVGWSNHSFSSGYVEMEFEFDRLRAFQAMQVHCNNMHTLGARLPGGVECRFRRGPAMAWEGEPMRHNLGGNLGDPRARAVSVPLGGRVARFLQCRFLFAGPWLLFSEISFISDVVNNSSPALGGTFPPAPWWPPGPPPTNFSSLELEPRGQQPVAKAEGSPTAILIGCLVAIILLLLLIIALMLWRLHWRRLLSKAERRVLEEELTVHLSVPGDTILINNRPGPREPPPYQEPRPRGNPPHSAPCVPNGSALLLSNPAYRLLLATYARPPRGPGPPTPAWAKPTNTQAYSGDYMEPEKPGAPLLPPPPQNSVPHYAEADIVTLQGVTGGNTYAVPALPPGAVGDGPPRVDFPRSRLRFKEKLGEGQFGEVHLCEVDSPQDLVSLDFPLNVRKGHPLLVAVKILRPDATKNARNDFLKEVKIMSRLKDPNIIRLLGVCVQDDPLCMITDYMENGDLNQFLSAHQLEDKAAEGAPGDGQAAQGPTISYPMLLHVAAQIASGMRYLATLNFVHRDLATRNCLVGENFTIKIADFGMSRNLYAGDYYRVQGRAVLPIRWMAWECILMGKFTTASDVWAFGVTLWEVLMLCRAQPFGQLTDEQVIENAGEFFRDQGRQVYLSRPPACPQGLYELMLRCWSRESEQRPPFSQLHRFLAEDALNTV

ROCK2 = ROCK2 (Homo sapiens, UniProt O75116)
Sequence of ROCK2 (O75116 whole entry): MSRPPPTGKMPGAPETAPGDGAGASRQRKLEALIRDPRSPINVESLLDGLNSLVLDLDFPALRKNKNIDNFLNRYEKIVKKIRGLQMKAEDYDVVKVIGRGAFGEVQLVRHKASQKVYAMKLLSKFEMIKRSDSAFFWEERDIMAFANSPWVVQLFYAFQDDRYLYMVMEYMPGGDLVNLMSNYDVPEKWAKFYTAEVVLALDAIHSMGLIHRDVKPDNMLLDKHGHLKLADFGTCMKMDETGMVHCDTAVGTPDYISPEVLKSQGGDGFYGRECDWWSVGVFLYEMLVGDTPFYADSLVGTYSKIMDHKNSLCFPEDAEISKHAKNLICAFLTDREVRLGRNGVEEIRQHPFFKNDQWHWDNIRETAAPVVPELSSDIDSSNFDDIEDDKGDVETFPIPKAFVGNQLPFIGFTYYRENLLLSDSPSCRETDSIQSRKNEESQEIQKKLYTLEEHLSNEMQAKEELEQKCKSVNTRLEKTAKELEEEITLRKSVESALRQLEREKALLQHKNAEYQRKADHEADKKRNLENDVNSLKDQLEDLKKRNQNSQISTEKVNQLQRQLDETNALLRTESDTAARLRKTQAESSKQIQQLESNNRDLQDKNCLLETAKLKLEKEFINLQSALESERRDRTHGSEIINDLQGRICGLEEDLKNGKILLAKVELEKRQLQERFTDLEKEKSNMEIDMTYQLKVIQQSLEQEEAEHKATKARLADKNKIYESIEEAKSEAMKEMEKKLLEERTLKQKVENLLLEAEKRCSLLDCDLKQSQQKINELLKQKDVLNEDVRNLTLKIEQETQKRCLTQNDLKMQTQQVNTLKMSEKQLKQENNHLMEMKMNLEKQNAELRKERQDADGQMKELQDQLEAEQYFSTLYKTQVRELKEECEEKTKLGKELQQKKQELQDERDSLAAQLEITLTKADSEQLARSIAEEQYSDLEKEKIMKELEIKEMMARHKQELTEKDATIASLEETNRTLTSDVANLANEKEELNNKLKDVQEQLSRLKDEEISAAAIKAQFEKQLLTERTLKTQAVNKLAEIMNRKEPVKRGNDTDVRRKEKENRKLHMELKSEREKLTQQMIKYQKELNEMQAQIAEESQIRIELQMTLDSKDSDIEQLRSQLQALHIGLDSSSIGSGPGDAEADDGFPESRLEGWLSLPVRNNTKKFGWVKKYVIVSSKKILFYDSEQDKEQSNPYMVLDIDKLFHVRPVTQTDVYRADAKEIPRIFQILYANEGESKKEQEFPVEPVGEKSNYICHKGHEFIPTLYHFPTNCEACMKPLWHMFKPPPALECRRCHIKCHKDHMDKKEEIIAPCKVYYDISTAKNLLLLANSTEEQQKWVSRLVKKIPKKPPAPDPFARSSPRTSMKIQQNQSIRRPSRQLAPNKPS

OC[C@@H]1OC[C@@H](c2ccc(O)c(O)c2)c2cc(O)c(O)cc21 (stereo in doubt) [(−)-9, (−)-Periplanol A]
IC50 (JAK3): 4.59 µM | IC50 (DDR1): 22.9 µM

OC[C@H]1OC[C@H](c2ccc(O)c(O)c2)c2cc(O)c(O)cc21 (stereo in doubt) [(+)-9, (+)-Periplanol A]
IC50 (JAK3): 9.35 µM | IC50 (DDR1): 23.9 µM

Cc1ccc(O)c(-c2cc(CC(=O)O)ccc2O)c1 [compound 6, Plancyin F]
IC50 (JAK3): 9.17 µM | IC50 (ROCK2): 27.1 µM
